Assay results as given in patent publication US9187472B2 (AbbVie Inc., priority 2012, dated 2015).

Assays:
NAMPT = NAMPT (Homo sapiens, UniProt P43490); assay: TR-FRET Binding Assay of NAMPT with PRPP; details: with 200 μM PRPP and 2.5 mM ATP; 2 nM NAMPT, 2 nM probe, 16 hours equilibration
How it was run: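 TR-FRET probe-displacement binding with 2 nM NAMPT, 2 nM probe and 1 nM Tb-anti-His antibody, run in the presence of 200 μM PRPP and 2.5 mM ATP at 2% DMSO. Equilibrated 16 hours before reading so test compounds could undergo enzymatic modification.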

[1] = molecular target: NAMPT (human, recombinant, C-terminally His-tagged) (Homo sapiens, UniProt P43490); assay: Time-Resolved Fluorescence Resonance Energy Transfer (TR-FRET) Binding Assay of NAMPT; details: without substrates; 6.8 nM NAMPT, 200 nM probe, 3 hours equilibration
How it was run: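 11-pt half-log compound series; final 6.8 nM NAMPT, 200 nM OG488 nicotinamide-competitive probe, 1 nM Tb-anti-His Ab, 2% DMSO, HEPES pH 7.5/NaCl/MgCl2/DTT/glycerol buffer. 3 h RT equilibration. Em520/Em495 ratio (Ex 337 nm), control-normalized, 4-parameter fit → IC50.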

PC3 cells = assay: NAMPT Cell Proliferation Assay; assay type: cell-based; details: Homo sapiens, PC-3, 120 h, 5 days incubation, cell viability by Cell Titer Glo
How it was run: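 Seed PC3 at 500 cells/well (RPMI, 10% HI-FBS), attach overnight; add compound, 10-fold series 10 μM → 1×10^−5 μM; incubate 5 d, 37° C/5% CO2; luminescent viability readout; fit % inhibition sigmoidally for IC50.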

Sequence of NAMPT (P43490 whole entry): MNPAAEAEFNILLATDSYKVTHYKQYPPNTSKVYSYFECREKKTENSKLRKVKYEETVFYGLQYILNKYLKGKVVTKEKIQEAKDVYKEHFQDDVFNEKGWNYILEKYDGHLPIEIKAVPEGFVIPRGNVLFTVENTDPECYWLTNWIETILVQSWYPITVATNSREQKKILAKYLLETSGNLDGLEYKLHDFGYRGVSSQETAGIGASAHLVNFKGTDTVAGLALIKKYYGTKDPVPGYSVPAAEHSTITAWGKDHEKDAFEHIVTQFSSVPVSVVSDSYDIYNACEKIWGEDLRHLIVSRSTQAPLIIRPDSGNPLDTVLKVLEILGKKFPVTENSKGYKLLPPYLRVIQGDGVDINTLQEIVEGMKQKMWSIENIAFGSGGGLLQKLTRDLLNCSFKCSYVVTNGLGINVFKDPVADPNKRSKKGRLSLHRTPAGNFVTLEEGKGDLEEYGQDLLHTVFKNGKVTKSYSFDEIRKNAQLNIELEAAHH
Sequence of NAMPT (human, recombinant, C-terminally His-tagged) (P43490 whole entry): as above

Compound | IC50 (NAMPT) | IC50 [1] | IC50 (PC3 cells)
O=C(NCc1ccc2nccn2c1)c1cnc(N(C[C@H]2CCCO2)C(=O)C2CCOCC2)s1 [Example 147, N-(imidazo[1,2-a]pyridin-6-ylmethyl)-2-{[(2R)-tetrahydrofuran-2-ylmethyl](tetrahydro-2H-pyran-4-ylcarbonyl)amino}-1,3-thiazole-5-carboxamide] | 0.63 nM | 251 nM | 6.69 nM
O=C(NCCCCC1CCN(C(=O)CC2CC2)CC1)Nc1ccc2nccn2c1 [Example 64, 1-{4-[1-(cyclopropylacetyl)piperidin-4-yl]butyl}-3-imidazo[1,2-a]pyridin-6-ylurea] | 0.495 nM | 518 nM | 19.8 nM
O=C(NCc1ccn2ccnc2c1)c1ccc(C2CCN(C(=O)CC3CCCC3)C2)cc1 (stereo not drawn) [Example 581, 4-[1-(cyclopentylacetyl)pyrrolidin-3-yl]-N-(imidazo[1,2-a]pyridin-7-ylmethyl)benzamide] | 1.09 nM | 945 nM | 81.2 nM
O=C(NCc1ccn2ccnc2c1)Nc1ccc(C2CCN(C(=O)c3cccc(F)c3)CC2)cc1 [Example 720, 1-{4-[1-(3-fluorobenzoyl)piperidin-4-yl]phenyl}-3-(imidazo[1,2-a]pyridin-7-ylmethyl)urea] | 0.181 nM | 36.7 nM | 5.82 nM
O=C(NCc1ccn2ccnc2c1)c1ccc(O[C@@H]2CCN(C(=O)[C@H]3CCOC3)C2)cc1 [Example 494, N-(imidazo[1,2-a]pyridin-7-ylmethyl)-4-({(3R)-1-[(3S)-tetrahydrofuran-3-ylcarbonyl]pyrrolidin-3-yl}oxy)benzamide] | 0.712 nM | 7560 nM | 1220 nM
CC(C)(O)C(=O)N1CC(Oc2ccc(NC(=O)NCc3ccn4ccnc4c3)cc2)C1 [Example 430, 1-(4-{[1-(2-hydroxy-2-methylpropanoyl)azetidin-3-yl]oxy}phenyl)-3-(imidazo[1,2-a]pyridin-7-ylmethyl)urea] | 0.264 nM | 292 nM | 88.6 nM
O=C(Nc1ccc(C(=O)NCCCN2CCCCC2)cc1)Nc1ccc2nccn2c1 [Example 9, 4-[(imidazo[1,2-a]pyridin-6-ylcarbamoyl)amino]-N-[3-(piperidin-1-yl)propyl]benzamide] | 0.459 nM | 1720 nM | 649 nM
COc1cccc(C(=O)N2CCC(c3ccc(C(=O)NCc4ccn5ccnc5c4)cc3)CC2)c1 [Example 526, N-(imidazo[1,2-a]pyridin-7-ylmethyl)-4-[1-(3-methoxybenzoyl)piperidin-4-yl]benzamide] | 0.275 nM | 126 nM | 60.3 nM
CC(C)CS(=O)(=O)N1CCC(c2ncc(C(=O)NCc3ccn4ccnc4c3)s2)C1 (stereo not drawn) [Example 751, N-(imidazo[1,2-a]pyridin-7-ylmethyl)-2-{1-[(2-methylpropyl)sulfonyl]pyrrolidin-3-yl}-1,3-thiazole-5-carboxamide] | 1 nM | 1240 nM | 755 nM
COCCn1cc(-c2ccc(NC(=O)NCc3ccn4ccnc4c3)cc2)cn1 [Example 673, 1-(imidazo[1,2-a]pyridin-7-ylmethyl)-3-{4-[1-(2-methoxyethyl)-1H-pyrazol-4-yl]phenyl}urea] | 0.697 nM | 452 nM | 122 nM
CCC(C)(C)C(=O)N1CCC(c2ccc(C(=O)NCc3ccn4ccnc4c3)cc2)C1 (stereo not drawn) [Example 598, 4-[1-(2,2-dimethylbutanoyl)pyrrolidin-3-yl]-N-(imidazo[1,2-a]pyridin-7-ylmethyl)benzamide] | 0.804 nM | 457 nM | 16.6 nM
Cn1cc(CCC(=O)N(C[C@H]2CCCO2)c2ncc(C(=O)NCc3ccn4ccnc4c3)s2)cn1 [Example 198, N-(imidazo[1,2-a]pyridin-7-ylmethyl)-2-{[3-(1-methyl-1H-pyrazol-4-yl)propanoyl][(2R)-tetrahydrofuran-2-ylmethyl]amino}-1,3-thiazole-5-carboxamide] | 0.225 nM | 32.5 nM | 1.84 nM

Further molecules by falling IC50 (NAMPT), results first:

IC50 (NAMPT) | IC50 [1] | IC50 (PC3 cells) | Compound
6.09 nM | 821 nM | 14.3 nM | O=C(NCc1ccc2nccn2c1)c1cnc(N(CC2CCCO2)C(=O)Cc2cscn2)s1 (stereo not drawn) [Example 191, N-(imidazo[1,2-a]pyridin-6-ylmethyl)-2-[(tetrahydrofuran-2-ylmethyl)(1,3-thiazol-4-ylacetyl)amino]-1,3-thiazole-5-carboxamide]
2.88 nM | 56.1 nM | 14.2 nM | O=C(CC1CCCO1)Nc1ccc(C(=O)NCc2ccc3nccn3c2)cc1 (stereo not drawn) [Example 77, N-(imidazo[1,2-a]pyridin-6-ylmethyl)-4-[(tetrahydrofuran-2-ylacetyl)amino]benzamide]
1.6 nM | 1010 nM | 446 nM | CS(=O)(=O)N1CC(c2ccc(C(=O)NCc3ccn4ccnc4c3)cc2)C1 [Example 623, N-(imidazo[1,2-a]pyridin-7-ylmethyl)-4-[1-(methylsulfonyl)azetidin-3-yl]benzamide]
1.35 nM | 2050 nM | 6580 nM | CC(C)CCNc1ncc(C(=O)NCc2ccc3nccn3c2)s1 [Example 87, N-(imidazo[1,2-a]pyridin-6-ylmethyl)-2-[(3-methylbutyl)amino]-1,3-thiazole-5-carboxamide]
1.11 nM | 153 nM | 58.3 nM | Cc1ccc(C(=O)N2CC(c3ccc(C(=O)NCc4ccn5ccnc5c4)cc3)C2)cc1 [Example 650, N-(imidazo[1,2-a]pyridin-7-ylmethyl)-4-[1-(4-methylbenzoyl)azetidin-3-yl]benzamide]
0.798 nM | 226 nM | 45.8 nM | Cc1cccc(C(=O)N2CC(c3ccc(C(=O)NCc4ccn5ccnc5c4)cc3)C2)c1 [Example 667, N-(imidazo[1,2-a]pyridin-7-ylmethyl)-4-[1-(3-methylbenzoyl)azetidin-3-yl]benzamide]
0.725 nM | 272 nM | 667 nM | O=C(NCc1ccn2ccnc2c1)Nc1ccc(O[C@@H]2CCN(C(=O)c3ccc(Cl)cc3)C2)cc1 [Example 696, 1-(4-{[(3R)-1-(4-chlorobenzoyl)pyrrolidin-3-yl]oxy}phenyl)-3-(imidazo[1,2-a]pyridin-7-ylmethyl)urea]
0.63 nM | 204 nM | 18.7 nM | CC(C)C(=O)N1CC=C(c2ccc(C(=O)NCc3ccc4nccn4c3)cc2)CC1 [Example 90, N-(imidazo[1,2-a]pyridin-6-ylmethyl)-4-[1-(2-methylpropanoyl)-1,2,3,6-tetrahydropyridin-4-yl]benzamide]
0.538 nM | 51.9 nM | 60.9 nM | Cn1cc(C(=O)N2CCC(c3ccc(C(=O)NCc4ccn5ccnc5c4)s3)C2)cn1 (stereo not drawn) [Example 775, N-(imidazo[1,2-a]pyridin-7-ylmethyl)-5-{1-[(1-methyl-1H-pyrazol-4-yl)carbonyl]pyrrolidin-3-yl}thiophene-2-carboxamide]
0.445 nM | 289 nM | 49.7 nM | O=C(NCc1ccn2ccnc2c1)c1cnc(C2CCN(C(=O)c3ccccc3F)C2)s1 (stereo not drawn) [Example 804, 2-[1-(2-fluorobenzoyl)pyrrolidin-3-yl]-N-(imidazo[1,2-a]pyridin-7-ylmethyl)-1,3-thiazole-5-carboxamide]
0.422 nM | 343 nM | 17.1 nM | O=C(NCc1ccn2ccnc2c1)c1ccc(C2CCN(C(=O)c3cnccn3)CC2)cc1 [Example 523, N-(imidazo[1,2-a]pyridin-7-ylmethyl)-4-[1-(pyrazin-2-ylcarbonyl)piperidin-4-yl]benzamide]
0.403 nM | 109 nM | 28.7 nM | O=C(NCc1ccn2ccnc2c1)c1cnc(C2CCN(C(=O)c3ccccc3)CC2)s1 [Example 545, 2-(1-benzoylpiperidin-4-yl)-N-(imidazo[1,2-a]pyridin-7-ylmethyl)-1,3-thiazole-5-carboxamide]
0.333 nM | 120 nM | 606 nM | O=C(NCc1ccn2ccnc2c1)c1ccc(N2CC(CO)OC2=O)s1 (stereo not drawn) [Example 266, 5-[5-(hydroxymethyl)-2-oxo-1,3-oxazolidin-3-yl]-N-(imidazo[1,2-a]pyridin-7-ylmethyl)thiophene-2-carboxamide]
0.284 nM | 663 nM | 192 nM | CC(C)CCn1nccc1-c1ccc(C(=O)NCc2ccn3ccnc3c2)o1 [Example 821, N-(imidazo[1,2-a]pyridin-7-ylmethyl)-5-[1-(3-methylbutyl)-1H-pyrazol-5-yl]furan-2-carboxamide]
0.169 nM | 459 nM | 31.4 nM | O=C(NCc1ccn2ccnc2c1)Nc1ccc(C2CN(C(=O)CC3CCOCC3)C2)cc1 [Example 461, 1-(imidazo[1,2-a]pyridin-7-ylmethyl)-3-{4-[1-(tetrahydro-2H-pyran-4-ylacetyl)azetidin-3-yl]phenyl}urea]
0.169 nM | 42.1 nM | 6.34 nM | O=C(NCc1ccn2ccnc2c1)c1ccc(-c2cnn(CC3COCCO3)c2)s1 (stereo not drawn) [Example 316, 5-[1-(1,4-dioxan-2-ylmethyl)-1H-pyrazol-4-yl]-N-(imidazo[1,2-a]pyridin-7-ylmethyl)thiophene-2-carboxamide]
